From PubChem BioAssay AID1919007 (Molecular Pharmacology Branch, DTP, NCI, 2023)

Test system: A498 complex spheroids with HUVEC/MSC, growth
Assay: Anticancer human tumor A498 cell line growth inhibition [AhR];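 further: seven day exposure starting three days after spheroid seeding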;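 on viability, T/C: luminescence signal used as a surrogate for viable cells; luminescence viability scaled so 100% equals DMSO vehicle wells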
Conditions: for IC50: curve of first compound; for viability, T/C: stronger effect = lower value
Summary of the method: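 Agents were dosed in half-log steps down from roughly clinical Cmax, or from 10 microM where Cmax was unknown, alone and with AhR antagonists. Read-out: percent test/control growth of tumor spheroids containing HUVEC and MSC stromal cells.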

[1] = second compound 0.1 µM, first compound 0.000949 µM
[2] = second compound 0.1 µM, first compound 0.003 µM
[3] = second compound 0.1 µM, first compound 0.00949 µM
[4] = second compound 0.1 µM, first compound 0.03 µM
[5] = second compound 0.1 µM, first compound 0.0949 µM
[6] = second compound 0.1 µM, first compound 0.3 µM
[7] = second compound 0.316 µM, first compound 0.000949 µM
[8] = second compound 0.316 µM, first compound 0.003 µM
[9] = second compound 0.316 µM, first compound 0.00949 µM
[10] = second compound 0.316 µM, first compound 0.03 µM
[11] = second compound 0.316 µM, first compound 0.0949 µM
[12] = second compound 0.316 µM, first compound 0.3 µM
[13] = second compound 1 µM, first compound 0.000949 µM
[14] = second compound 1 µM, first compound 0.003 µM
[15] = second compound 1 µM, first compound 0.00949 µM
[16] = second compound 1 µM, first compound 0.03 µM
[17] = second compound 1 µM, first compound 0.0949 µM
[18] = second compound 1 µM, first compound 0.3 µM
[19] = second compound 3.16 µM, first compound 0.000949 µM
[20] = second compound 3.16 µM, first compound 0.003 µM
[21] = second compound 3.16 µM, first compound 0.00949 µM
[22] = second compound 3.16 µM, first compound 0.03 µM
[23] = second compound 3.16 µM, first compound 0.0949 µM
[24] = second compound 3.16 µM, first compound 0.3 µM
[25] = second compound 10 µM, first compound 0.000949 µM
[26] = second compound 10 µM, first compound 0.003 µM
[27] = second compound 10 µM, first compound 0.00949 µM
[28] = second compound 10 µM, first compound 0.03 µM
[29] = second compound 10 µM, first compound 0.0949 µM
[30] = second compound 10 µM, first compound 0.3 µM
[31] = second compound 0.1 µM, first compound 0.0316 µM
[32] = second compound 0.1 µM, first compound 0.1 µM
[33] = second compound 0.1 µM, first compound 0.316 µM
[34] = second compound 0.1 µM, first compound 1 µM
[35] = second compound 0.1 µM, first compound 3.16 µM
[36] = second compound 0.1 µM, first compound 10 µM
[37] = second compound 0.316 µM, first compound 0.0316 µM
[38] = second compound 0.316 µM, first compound 0.1 µM
[39] = second compound 0.316 µM, first compound 0.316 µM
[40] = second compound 0.316 µM, first compound 1 µM
[41] = second compound 0.316 µM, first compound 3.16 µM
[42] = second compound 0.316 µM, first compound 10 µM
[43] = second compound 1 µM, first compound 0.0316 µM
[44] = second compound 1 µM, first compound 0.1 µM
[45] = second compound 1 µM, first compound 0.316 µM
[46] = second compound 1 µM, first compound 1 µM
[47] = second compound 1 µM, first compound 3.16 µM
[48] = second compound 1 µM, first compound 10 µM
[49] = second compound 3.16 µM, first compound 0.0316 µM
[50] = second compound 3.16 µM, first compound 0.1 µM
[51] = second compound 3.16 µM, first compound 0.316 µM
[52] = second compound 3.16 µM, first compound 1 µM
[53] = second compound 3.16 µM, first compound 3.16 µM
[54] = second compound 3.16 µM, first compound 10 µM
[55] = second compound 10 µM, first compound 0.0316 µM
[56] = second compound 10 µM, first compound 0.1 µM
[57] = second compound 10 µM, first compound 0.316 µM
[58] = second compound 10 µM, first compound 1 µM
[59] = second compound 10 µM, first compound 3.16 µM
[60] = second compound 10 µM, first compound 10 µM

SMILES: CC(C)CC(NC(=O)C(Cc1ccccc1)NC(=O)c1cnccn1)B(O)O (stereo not given) + Cc1ccccc1N=Nc1ccc(NC(=O)c2ccnn2C)c(C)c1
- IC50 (second compound 0.1 µM): 5.25 nM
- IC50 (second compound 0.316 µM): 5.75 nM
- IC50 (second compound 1 µM): 5.19 nM
- IC50 (second compound 3.16 µM): 5.16 nM
- IC50 (second compound 10 µM): 5.11 nM
- viability, T/C [1]: 91.9%
- viability, T/C [2]: 85.5%
- viability, T/C [3]: 12.4%
- viability, T/C [4]: 2.56%
- viability, T/C [5]: 1.06%
- viability, T/C [6]: 0.48%
- viability, T/C [7]: 99.1%
- viability, T/C [8]: 102%
- viability, T/C [9]: 11%
- viability, T/C [10]: 3.7%
- viability, T/C [11]: 3.08%
- viability, T/C [12]: 1.05%
- viability, T/C [13]: 81.7%
- viability, T/C [14]: 86.3%
- viability, T/C [15]: 12.4%
- viability, T/C [16]: 3.99%
- viability, T/C [17]: 2.9%
- viability, T/C [18]: 0.61%
- viability, T/C [19]: 80.9%
- viability, T/C [20]: 86.7%
- viability, T/C [21]: 11.8%
- viability, T/C [22]: 4.56%
- viability, T/C [23]: 3.32%
- viability, T/C [24]: 0.84%
- viability, T/C [25]: 84.8%
- viability, T/C [26]: 87.2%
- viability, T/C [27]: 8.3%
- viability, T/C [28]: 4.14%
- viability, T/C [29]: 1.64%
- viability, T/C [30]: 1.69%

SMILES: CCc1c2c(nc3ccc(O)cc13)-c1cc3c(c(=O)n1C2)COC(=O)[C@]3(O)CC + Cc1ccccc1N=Nc1ccc(NC(=O)c2ccnn2C)c(C)c1
- IC50 (second compound 0.1 µM): 57.6 nM
- IC50 (second compound 0.316 µM): 71.1 nM
- IC50 (second compound 1 µM): 52.1 nM
- IC50 (second compound 3.16 µM): 44.2 nM
- IC50 (second compound 10 µM): 60.4 nM
- viability, T/C [1]: 89.2%
- viability, T/C [2]: 78.2%
- viability, T/C [3]: 72.8%
- viability, T/C [4]: 55.9%
- viability, T/C [5]: 44.1%
- viability, T/C [6]: 38.8%
- viability, T/C [7]: 84.9%
- viability, T/C [8]: 83.5%
- viability, T/C [9]: 80.3%
- viability, T/C [10]: 61.6%
- viability, T/C [11]: 45.4%
- viability, T/C [12]: 45%
- viability, T/C [13]: 83.1%
- viability, T/C [14]: 85.9%
- viability, T/C [15]: 78%
- viability, T/C [16]: 58.2%
- viability, T/C [17]: 38.8%
- viability, T/C [18]: 43.6%
- viability, T/C [19]: 86.9%
- viability, T/C [20]: 78.7%
- viability, T/C [21]: 76.2%
- viability, T/C [22]: 54.5%
- viability, T/C [23]: 40%
- viability, T/C [24]: 34.8%
- viability, T/C [25]: 84.3%
- viability, T/C [26]: 79.5%
- viability, T/C [27]: 77.8%
- viability, T/C [28]: 62.2%
- viability, T/C [29]: 41.4%
- viability, T/C [30]: 39.4%

SMILES: Nc1ccccc1NC(=O)c1ccc(CNC(=O)OCc2cccnc2)cc1 + Cc1ccccc1N=Nc1ccc(NC(=O)c2ccnn2C)c(C)c1
- IC50 (second compound 0.1 µM): 1500 nM
- IC50 (second compound 0.316 µM): 1670 nM
- IC50 (second compound 1 µM): 1430 nM
- IC50 (second compound 3.16 µM): 1200 nM
- IC50 (second compound 10 µM): 1160 nM
- viability, T/C [31]: 101%
- viability, T/C [32]: 91.4%
- viability, T/C [33]: 82.5%
- viability, T/C [34]: 64.6%
- viability, T/C [35]: 26.8%
- viability, T/C [36]: 1.44%
- viability, T/C [37]: 123%
- viability, T/C [38]: 92.6%
- viability, T/C [39]: 86.5%
- viability, T/C [40]: 72%
- viability, T/C [41]: 28.5%
- viability, T/C [42]: 1.77%
- viability, T/C [43]: 103%
- viability, T/C [44]: 96.2%
- viability, T/C [45]: 82%
- viability, T/C [46]: 61.5%
- viability, T/C [47]: 27.3%
- viability, T/C [48]: 1.56%
- viability, T/C [49]: 89.3%
- viability, T/C [50]: 91.6%
- viability, T/C [51]: 74.4%
- viability, T/C [52]: 54%
- viability, T/C [53]: 26.9%
- viability, T/C [54]: 1.8%
- viability, T/C [55]: 84%
- viability, T/C [56]: 80.7%
- viability, T/C [57]: 67.8%
- viability, T/C [58]: 53.6%
- viability, T/C [59]: 29.6%
- viability, T/C [60]: 1.63%

SMILES: O=C(c1cc(Cc2n[nH]c(=O)c3ccccc23)ccc1F)N1CCN(C(=O)C2CC2)CC1 + Cc1ccccc1N=Nc1ccc(NC(=O)c2ccnn2C)c(C)c1
- IC50 (second compound 0.1 µM): > 10000 nM
- IC50 (second compound 0.316 µM): > 10000 nM
- IC50 (second compound 1 µM): > 10000 nM
- IC50 (second compound 3.16 µM): > 10000 nM
- IC50 (second compound 10 µM): > 10000 nM
- viability, T/C [31]: 90.1%
- viability, T/C [32]: 95.2%
- viability, T/C [33]: 90.2%
- viability, T/C [34]: 91.9%
- viability, T/C [35]: 92.6%
- viability, T/C [36]: 83.5%
- viability, T/C [37]: 96.3%
- viability, T/C [38]: 95.9%
- viability, T/C [39]: 95.2%
- viability, T/C [40]: 95.1%
- viability, T/C [41]: 88.9%
- viability, T/C [42]: 90.4%
- viability, T/C [43]: 84.6%
- viability, T/C [44]: 95.7%
- viability, T/C [45]: 91.5%
- viability, T/C [46]: 81%
- viability, T/C [47]: 85.7%
- viability, T/C [48]: 75.9%
- viability, T/C [49]: 79.5%
- viability, T/C [50]: 92.7%
- viability, T/C [51]: 87.6%
- viability, T/C [52]: 85.5%
- viability, T/C [53]: 76.6%
- viability, T/C [54]: 75.8%
- viability, T/C [55]: 87.3%
- viability, T/C [56]: 83.4%
- viability, T/C [57]: 80.3%
- viability, T/C [58]: 86.5%
- viability, T/C [59]: 75.9%
- viability, T/C [60]: 70.6%
